# How the values were obtained:
# [1] = Oral bioavailability in Sprague-Dawley rat determined from 1 mg/kg, iv and 10 mg/kg, po by LC/MS/MS analysis; assay type: ADME, organism-based; settings: in vivo
# [2] = Cmax in healthy human at 1 mg/kg, po by LC/MS/MS analysis; assay type: ADME, organism-based; design: dose 1 mg/kg, route oral; settings: in vivo
# [3] = tested on: Homo sapiens; test: Immunomodulatory activity in arthritic patient assessed as decrease in peripheral lymphocytes at […], po administered as single dose after 48 hrs; assay type: functional; design: scale not given: the % may be the effect or the level left
# [4] = AUC (0 to infinity) in 129/SvEvBrd X C57BL/6 F1 mouse at 10 mg/kg, po by LC/MS/MS analysis; assay type: ADME, organism-based, Plasma; design: time infinity, dose 10 mg/kg, route oral; settings: 129/SvEvBrd X C57BL/6 F1, mouse, plasma
# [5] = Tmax in 129/SvEvBrd X C57BL/6 F1 mouse at 10 mg/kg, po by LC/MS/MS analysis; assay type: ADME, organism-based; design: dose 10 mg/kg, route oral; settings: in vivo
# [6] = tested on: Rattus norvegicus; test: Volume of distribution at steady state in Sprague-Dawley rat at 10 mg/kg, po by LC/MS/MS analysis; assay type: ADME, organism-based; design: dose 10 mg/kg, route oral; settings: in vivo
# [7] = tested on: Homo sapiens; test: Toxicity in arthritic patient assessed as tolerability at […], po administered as single dose; assay type: organism-based; design: route oral; settings: in vivo
# [8] = Clearance in Sprague-Dawley rat at 1 mg/kg, iv by LC/MS/MS analysis; assay type: ADME, organism-based; design: dose 1 mg/kg, route intravenous; settings: in vivo
# [9] = Cmax in 129/SvEvBrd X C57BL/6 F1 mouse at 10 mg/kg, po by LC/MS/MS analysis; assay type: ADME, organism-based; design: dose 10 mg/kg, route oral; settings: in vivo
# [10] = AUC (0 to infinity) in Beagle dog at 50 mg/kg, po by LC/MS/MS analysis; assay type: ADME, organism-based, Canis lupus familiaris; design: dose 50 mg/kg, route oral, time infinity; settings: plasma
# [11] = tested on: Canis familiaris; test: Volume of distribution at steady state in Beagle dog at 50 mg/kg, po by LC/MS/MS analysis; assay type: ADME, organism-based, Canis lupus familiaris; design: dose 50 mg/kg, route oral; settings: in vivo
# [12] = Clearance in cynomolgus monkey at 1 mg/kg, iv by LC/MS/MS analysis; assay type: ADME, organism-based, Macaca fascicularis; design: dose 1 mg/kg, route intravenous; settings: in vivo
# [13] = Bioavailability in 129/SvEvBrd X C57BL/6 F1 mouse determined from 1 mg/kg, iv and 10 mg/kg, po by LC/MS/MS analysis; assay type: ADME, organism-based; settings: 129/SvEvBrd X C57BL/6 F1, mouse, in vivo
# [14] = tested on: Mus musculus; test: Immunomodulatory activity in 129/SvEvBrd X C57BL/6 F1 mouse assessed as decrease in peripheral blood lymphocyte count at 30 mg/kg, po measured after 18 hrs by complete blood count analysis relative to control; assay type: ADME, organism-based; design: dose 30 mg/kg, route oral; scale not given: the % may be the effect or the level left; settings: in vivo
# [15] = Tmax in cynomolgus monkey at 30 mg/kg, po by LC/MS/MS analysis; assay type: ADME, organism-based, Macaca fascicularis; design: dose 30 mg/kg, route oral; settings: in vivo
# [16] = Clearance in 129/SvEvBrd X C57BL/6 F1 mouse at 1 mg/kg, iv by LC/MS/MS analysis; assay type: ADME, organism-based; design: dose 1 mg/kg, route intravenous; settings: in vivo
# [17] = Volume of distribution at steady state in 129/SvEvBrd X C57BL/6 F1 mouse at 1 mg/kg, iv by LC/MS/MS analysis; assay type: ADME, organism-based; design: dose 1 mg/kg, route intravenous; settings: in vivo, read-out: Vdss
# [18] = AUC (0 to infinity) in Sprague-Dawley rat at 10 mg/kg, po by LC/MS/MS analysis; assay type: ADME, organism-based; design: time infinity, dose 10 mg/kg, route oral; settings: plasma
# [19] = Half life in 129/SvEvBrd X C57BL/6 F1 mouse at 10 mg/kg, po by LC/MS/MS analysis; assay type: ADME, organism-based; design: dose 10 mg/kg, route oral; settings: in vivo
# [20] = tested on: Cynomolgus monkey; test: Volume of distribution at steady state in cynomolgus monkey at 30 mg/kg, po by LC/MS/MS analysis; assay type: ADME, organism-based, Macaca fascicularis; design: dose 30 mg/kg, route oral; settings: in vivo
# [21] = Tmax in healthy human at 1 mg/kg, po by LC/MS/MS analysis; assay type: ADME, organism-based; design: dose 1 mg/kg, route oral; settings: in vivo
# [22] = Cmax in cynomolgus monkey at 30 mg/kg, po by LC/MS/MS analysis; assay type: ADME, organism-based, Macaca fascicularis; design: dose 30 mg/kg, route oral; settings: in vivo
# [23] = tested on: Mus musculus; test: Antiarthritic activity in […] collagen-induced arthritic mouse assessed as decrease in circulating T cells at 100 mg/kg, po qd administered one day before collagen challenge; assay type: functional, T-cell; design: scale not given: the % may be the effect or the level left
# [24] = tested on: Cynomolgus monkey; test: Cardiotoxicity in cynomolgus monkey assessed as increase in heart rate at 1000 mg/kg, po administered as single dose after 24 hrs by electrocardiogram analysis; assay type: toxicity, organism-based, Macaca fascicularis; design: dose 1000 mg/kg, route oral; settings: in vivo
# [25] = tested on: Rattus norvegicus; test: Increase in S1P level in Sprague-Dawley rat jejunum at 30 mg/kg, po administered daily for 3 days measured after 18 hrs […] relative to untreated control; assay type: functional
# [26] = tested on: Rattus norvegicus; test: Increase in S1P level in Sprague-Dawley rat spleen at 30 mg/kg, po administered daily for 3 days measured after 18 hrs […] relative to untreated control; assay type: functional
# [27] = tested on: Canis familiaris; test: Cardiotoxicity in Beagle dog assessed as increase in heart rate at 500 mg/kg, po administered as single dose after 24 hrs by electrocardiogram analysis; assay type: toxicity, organism-based, Canis lupus familiaris; design: dose 500 mg/kg, route oral; settings: in vivo
# [28] = Cmax in Beagle dog at 50 mg/kg, po by LC/MS/MS analysis; assay type: ADME, organism-based, Canis lupus familiaris; design: dose 50 mg/kg, route oral; settings: in vivo
# [29] = Clearance in Beagle dog at 1 mg/kg, iv by LC/MS/MS analysis; assay type: ADME, organism-based, Canis lupus familiaris; design: dose 1 mg/kg, route intravenous; settings: in vivo
# [30] = tested on: Mus musculus; test: Immunomodulatory activity in mouse assessed as induction of lymphopenia at 30 to 100 mg/kg, po administered as single dose measured after 18 hrs; assay type: functional; settings: dose mg/kg 30-100
# [31] = Tmax in Beagle dog at 50 mg/kg, po by LC/MS/MS analysis; assay type: ADME, organism-based, Canis lupus familiaris; design: dose 50 mg/kg, route oral; settings: in vivo
# [32] = Bioavailability in cynomolgus monkey determined from 1 mg/kg, iv and 30 mg/kg, po by LC/MS/MS analysis; assay type: ADME, organism-based, Macaca fascicularis; settings: in vivo
# [33] = Tmax in Sprague-Dawley rat at 10 mg/kg, po by LC/MS/MS analysis; assay type: ADME, organism-based; design: dose 10 mg/kg, route oral; settings: in vivo
# [34] = Bioavailability in Beagle dog determined from 1 mg/kg, iv and 50 mg/kg, po by LC/MS/MS analysis; assay type: ADME, organism-based, Canis lupus familiaris; settings: in vivo
# [35] = tested on: Rattus norvegicus; test: Increase in S1P level in Sprague-Dawley rat thymus at 30 mg/kg, po administered daily for 3 days measured after 18 hrs […] relative to untreated control; assay type: functional
# [36] = AUC (0 to infinity) in cynomolgus monkey at 30 mg/kg, po by LC/MS/MS analysis; assay type: ADME, organism-based, Macaca fascicularis; design: dose 30 mg/kg, route oral, time infinity; settings: plasma
# [37] = Cmax in Sprague-Dawley rat at 10 mg/kg, po by LC/MS/MS analysis; assay type: ADME, organism-based; design: dose 10 mg/kg, route oral; settings: in vivo
# [38] = AUC (0 to infinity) in healthy human at 1 mg/kg, po by LC/MS/MS analysis; assay type: ADME, organism-based; design: time infinity, dose 1 mg/kg, route oral; settings: plasma
smiles,measurement,setting,value
C/C(=N\O)c1nc([C@@H](O)[C@H](O)[C@H](O)CO)c[nH]1.Cl,bioavailability,[1],26%
same,Cmax,[2],3 µM
same,Activity,[3],50%
same,AUC(0-inf),[4],8.8 µM·h
same,Tmax,[5],0.45 h
same,Vdss,[6],0.6 L/kg
same,Activity,[7],Non-toxic
same,clearance,[8],10.2 mL/min/kg
same,Cmax,[9],3.6 µM
same,AUC(0-inf),[10],323 µM·h
same,Vdss,[11],0.3 L/kg
same,clearance,[12],4.8 mL/min/kg
same,bioavailability,[13],6.8%
same,Activity,[14],-60%
same,Tmax,[15],2.3 h
same,clearance,[16],7.6 mL/min/kg
same,Vd,[17],0.9 L/kg
same,AUC(0-inf),[18],18.7 µM·h
same,half-life,[19],1.6 h
same,Vdss,[20],0.5 L/kg
same,Tmax,[21],2 h
same,Cmax,[22],16.9 µM
same,Activity,[23],40%
same,Activity,[24],Non-toxic
same,fold change (FC),[25],45
same,fold change (FC),[26],24
same,Activity,[27],Non-toxic
same,Cmax,[28],79.5 µM
same,clearance,[29],3.5 mL/min/kg
same,Activity,[30],40%
same,Tmax,[31],2 h
same,bioavailability,[32],16.4%
same,Tmax,[33],2 h
same,bioavailability,[34],32.1%
same,fold change (FC),[35],80
same,AUC(0-inf),[36],70.1 µM·h
same,Cmax,[37],2.7 µM
same,AUC(0-inf),[38],19 µM·h

# — ChEMBL document CHEMBL1799925, “Inhibition of sphingosine 1-phosphate lyase for the treatment of rheumatoid arthritis: discovery of (E)-1-(4-((1R,2S,3R)-1,2,3,4-tetrahydroxybutyl)-1H-imidazol-2-yl)ethanone oxime (LX2931) and (1R,2S,3R)-1-(2-(isoxazol-3-yl)-1H-imidazol-4-yl)butane-1,2,3,4-tetraol (LX2932)” (J Med Chem, 2010)
